Laboratory results from patent US10266535B2, “Inhibitor of FLT3 kinase and use thereof” (HEFEI INSTITUTES OF PHYSICAL SCIENCE, CHINESE ACADEMY OF …, priority 2015, dated 2019).
Structures can show the parent of a compound that is named as a salt. Where two headings read alike, the source gives them in different places.

Columns and labels:
pro-B cell BaF3 = assay: Cell proliferation, Cell Titer-Glo, BaF3; type: cell-based; settings: Mus musculus, incubated for 72 hours
Procedure: (§1) The above cell lines were constructed by our laboratory.
(§2) The number of viable cells was determined by quantification of ATP in living cells using the Cell Titer-Glo® (Promega, USA) chemiluminescence cell viability assay kit.

[1] = system: MV4-11 (expressing FLT3/ITD mutant gene); assay: Cell proliferation, Cell Titer-Glo, MV4-11; type: cell-based; settings: Homo sapiens
Procedure: as §1, §2

[2] = system: TEL-BaF3-FLT3/ITD (stably expressing FLT3/ITD mutant activated kinase); assay: Cell proliferation, Cell Titer-Glo, TEL-BaF3-FLT3/ITD; type: cell-based, mouse
Procedure: as §1, §2

[3] = system: U937 (expressing wild-type FLT3 gene); assay: Cell proliferation, Cell Titer-Glo, U937; type: cell-based, human; settings: Homo sapiens, U-937, 72 h, incubated for 72 hours; read-out: U937 IC50
Procedure: as §1, §2

[4] = system: OCI-AML-3 (expressing FLT3 A680V mutant gene); assay: Cell proliferation, Cell Titer-Glo, OCI-AML3; type: cell-based; settings: Homo sapiens, incubated for 72 hours
Procedure: as §1, §2

[5] = system: MOLM-13 (expressing FLT3/ITD mutant gene and wild-type FLT3 gene); assay: Cell proliferation, Cell Titer-Glo, MOLM-13; type: cell-based; settings: Homo sapiens, MOLM-13; incubated for 72 hours; read-out: MOLM-13 IC50
Procedure: as §1, §2

[6] = system: TEL-BaF3-BMX (stably expressing BMX kinase); assay: Cell proliferation, Cell Titer-Glo, TEL-BaF3-BMX; type: cell-based; settings: Mus musculus; incubated for 72 hours
Procedure: as §1, §2

[7] = system: TEL-BaF3-BLK (stably expressing BLK kinase); assay: Cell proliferation, Cell Titer-Glo, TEL-BaF3-BLK; type: cell-based; settings: Mus musculus; incubated for 72 hours
Procedure: as §1, §2

[8] = system: TEL-cKIT-BaF3 (stably expressing cKIT kinase); assay: Cell proliferation, Cell Titer-Glo, TEL-cKIT-BaF3; type: cell-based; settings: Mus musculus; incubated for 72 hours
Procedure: as §1, §2

[9] = MV4-11, incubated for 72 hours, read-out: MV4-11 IC50
[10] = Mus musculus, 72 h, incubated for 72 hours, read-out: TEL-BaF3-FLT3/ITD IC50

| IC50 (pro-B cell BaF3) | IC50 [3] | IC50 [1, 9] | IC50 [2, 10] | SMILES | also measured |
| --- | --- | --- | --- | --- | --- |
| 950 nM |  |  |  | CC(C)C[C@@H](N)C(=O)N[C@H]1CC[C@H](n2nc(-c3ccc(Oc4ccccc4)cc3)c3c(N)ncnc32)CC1 (stereo in doubt) [Compound 85, (R)-2-amino-N-(4-(4-amino-3-(4-phenoxyphenyl)-1H-pyrazolo[3,4-d]pyrimidin-1-yl)trans-1,4-cyclohexyl)-4-methylpentanamide hydrochloride] | IC50 ([1]; MV4-11, 72 h, read-out: MV4-11 IC50 [μM]): 0.51 µM; IC50 ([2]; Mus musculus, 72 h, read-out: TEL-BaF3-FLT3/ITD IC50 [μM], incubated for 72 hours): 0.082 µM |
|  | 8960 nM | 0.67 µM | 0.15 µM | Nc1ncnc2c1c(-c1ccc(Oc3ccccc3)cc1)nn2[C@@H]1CCCN(C(=O)CCCl)C1 [Compound 36] | IC50 [4]: > 10000 nM |
|  | > 10000 nM | 0.23 µM | 0.15 µM | CC(Br)C(=O)N1CCC[C@@H](n2nc(-c3ccc(Oc4ccccc4)cc3)c3c(N)ncnc32)C1 (stereo partly drawn) [Compound 37] | IC50 [4]: 1090 nM |
|  | 7930 nM | 0.97 µM | 0.12 µM | CC(Cl)C(=O)N1CCC[C@@H](n2nc(-c3ccc(Oc4ccccc4)cc3)c3c(N)ncnc32)C1 (stereo partly drawn) [Compound 38] | IC50 [4]: 6510 nM |
|  | 5870 nM | 0.23 µM | 0.093 µM | CN1CCN(CC(=O)N2CCC[C@@H](n3nc(-c4ccc(Oc5ccccc5)cc4)c4c(N)ncnc43)C2)CC1 [Compound 39] | IC50 [4]: 4910 nM |
| > 10000 nM |  | 0.24 µM | 0.49 µM | NC(=O)CC[C@H](N)C(=O)N1CCC[C@@H](n2nc(-c3ccc(Oc4ccccc4)cc3)c3c(N)ncnc32)C1 [Compound 56] | IC50 [5]: 710 nM |
| 3720 nM |  | 0.058 µM | 0.094 µM | CN1CCN(CCC(=O)N2CCC[C@@H](n3nc(-c4ccc(Oc5ccccc5)cc4)c4c(N)ncnc43)C2)CC1 [Compound 58] | IC50 [6]: 270 nM; IC50 [7]: 150 nM; IC50 [8]: 7400 nM; IC50 [5]: 190 nM |
| 9290 nM |  | 0.429 µM | 0.18 µM | CC(C)(C)OC(=O)NCC(=O)N1CCC[C@@H](n2nc(-c3ccc(Oc4ccccc4)cc3)c3c(N)ncnc32)C1 [Compound 59, (R)-tert-butyl 2-(3-(4-amino-3-(4-phenoxyphenyl)-1H-pyrazolo[3,4-d]pyrimidin-1-yl)piperidin-1-yl)-2-oxoethylcarbamate] | IC50 [5]: 775 nM |
| 7210 nM |  | 0.948 µM | 0.48 µM | CC(C)C[C@@H](O)C(=O)N1CCC[C@@H](n2nc(-c3ccc(Oc4ccccc4)cc3)c3c(N)ncnc32)C1 [Compound 61, (R)-1-((R)-3-(4-amino-(4-phenoxyphenyl)-1H-pyrazolo[3,4-d]pyrimidin-1-yl)piperidin-1-yl)-2-hydroxyl-4-methylpentan-1-one] | IC50 [5]: 2120 nM |
| 8460 nM |  | 0.38 µM | 0.41 µM | NCCCCC(=O)N1CCC[C@@H](n2nc(-c3ccc(Oc4ccccc4)cc3)c3c(N)ncnc32)C1 [Compound 62] | IC50 [5]: 1200 nM |
| 4690 nM |  | 0.35 µM | 0.15 µM | CCCCC(O)C(=O)N1CCC[C@@H](n2nc(-c3ccc(Oc4ccccc4)cc3)c3c(N)ncnc32)C1 (stereo partly drawn) [Compound 63] | IC50 [5]: 720 nM |
| 6340 nM |  | 0.73 µM | 0.16 µM | CC(C)(C)OC(=O)NCC(=O)N1CC[C@@H](n2nc(-c3ccc(Oc4ccccc4)cc3)c3c(N)ncnc32)C1 [Compound 66, (R)-tert-butyl 2-(3-(4-amino-(4-phenoxyphenyl)-1H-pyrazolo[3,4-d]pyrimidin-1-yl)pyrrolidin-1-yl)-2-oxoethylcarbamate] | IC50 [5]: 1600 nM |
| > 10000 nM |  | 0.42 µM | 0.13 µM | CS(=O)(=O)N1CC[C@@H](n2nc(-c3ccc(Oc4ccccc4)cc3)c3c(N)ncnc32)C1 [Compound 67, (R)-1-(1-(methylsulfonyl)pyrrolidin-3-yl)-3-(4-phenoxyphenyl)-1H-pyrazolo[3,4-d]pyrimidin-4-amine] | IC50 [5]: 1460 nM |
| 3650 nM |  |  | 0.075 µM | CN(C)CC(=O)N1CCC(n2nc(-c3ccc(Oc4ccccc4)cc3)c3c(N)ncnc32)CC1 [Compound 72, 1-(4-(4-amino-(4-phenoxyphenyl)-1H-pyrazolo[3,4-d]pyrimidin-1-yl)piperidin-1-yl)-2-(dimethylamino)ethanone] |  |
| > 10000 nM |  |  | 0.19 µM | CS(=O)(=O)N1CCC(n2nc(-c3ccc(Oc4ccccc4)cc3)c3c(N)ncnc32)CC1 [Compound 73, 1-(1-(methylsulfonyl)piperidin-4-yl)-3-(4-phenoxyphenyl)-1H-pyrazolo[3,4-d]pyrimidin-4-amine] |  |
| 590 nM |  |  | 0.075 µM | CC(C)C[C@@H](N)C(=O)N1CCC(n2nc(-c3ccc(Oc4ccccc4)cc3)c3c(N)ncnc32)CC1 [Compound 74, (R)-2-amino-1-(4-(4-amino-(4-phenoxyphenyl)-1H-pyrazolo[3,4-d]pyrimidin-1-yl)piperidin-1-yl)-4-methylpentan-1-one] |  |

More lines, now with the values behind:

| SMILES | IC50 (pro-B cell BaF3) | IC50 [3] | IC50 [1, 9] | IC50 [2, 10] | also measured |
| --- | --- | --- | --- | --- | --- |
| Nc1ncnc2c1c(-c1ccc(Oc3ccccc3)cc1)nn2[C@@H]1CCCN(C(=O)C2CC2)C1 [Compound 1, (R)-(3-(4-amino-(4-phenoxyphenyl)-1H-pyrazolo[3,4-d]pyrimidin-1-yl)piperidin-1-yl)(cyclopropyl)methanone] |  | > 10000 nM | 6.5 µM | 1.4 µM | IC50 [4]: > 10000 nM |
| Nc1ncnc2c1c(-c1ccc(Oc3ccccc3)cc1)nn2[C@@H]1CCCN(S(=O)(=O)C(F)(F)F)C1 [Compound 3, (R)-3-(4-phenoxyphenyl)-1-(1-((trifluoromethyl)sulfonyl)piperidin-3-yl)-1H-pyrazolo[3,4-d]pyrimidin-4-amine] |  | > 10000 nM |  | 1.8 µM |  |
| Nc1ncnc2c1c(-c1ccc(Oc3ccccc3)cc1)nn2[C@@H]1CCCN(C(=O)c2cccnc2)C1 [Compound 13, (R)-(3-(4-amino-(4-phenoxyphenyl)-1H-pyrazolo[3,4-d]pyrimidin-1-yl)piperidin-1-yl)(pyridin-3-yl)methanone] |  | > 10000 nM |  | 0.45 µM |  |
| Nc1ncnc2c1c(-c1ccc(Oc3ccccc3)cc1)nn2[C@@H]1CCCN(C(=O)c2cncnc2)C1 [Compound 15, (R)-(3-(4-amino-(4-phenoxyphenyl)-1H-pyrazolo[3,4-d]pyrimidin-1-yl)piperidin-1-yl)(pyrimidin-5-yl)methanone] |  | > 10000 nM |  | 0.2 µM |  |
| COC(=O)c1ccc(C(=O)N2CCC[C@@H](n3nc(-c4ccc(Oc5ccccc5)cc4)c4c(N)ncnc43)C2)cc1 [Compound 16, (R)-methyl 4-(3-(4-amino-(4-phenoxyphenyl)-1H-pyrazolo[3,4-d]pyrimidin-1-yl)piperidine-1-carbonyl)benzoate] |  | > 10000 nM |  | 6 µM |  |
| Nc1ccc(C(=O)N2CCC[C@@H](n3nc(-c4ccc(Oc5ccccc5)cc4)c4c(N)ncnc43)C2)cn1 [Compound 17, (R)-(3-(4-amino-(4-phenoxyphenyl)-1H-pyrazolo[3,4-d]pyrimidin-1-yl)piperidin-1-yl)(6-aminopyridin-3-yl)methanone] |  | > 10000 nM |  | 0.88 µM |  |
| Nc1ncnc2c1c(-c1ccc(Oc3ccccc3)cc1)nn2[C@@H]1CCCN(C(=O)c2ccc3c(c2)OCO3)C1 [Compound 18, (R)-(3-(4-amino-(4-phenoxyphenyl)-1H-pyrazolo[3,4-d]pyrimidin-1-yl)piperidin-1-yl)-(3,4-methylenedioxyphenyl)mathanone] |  | > 10000 nM |  | 1.8 µM |  |
| Nc1ncnc2c1c(-c1ccc(Oc3ccccc3)cc1)nn2[C@@H]1CCCN(C(=O)C2CCNCC2)C1 [Compound 19, (R)-(3-(4-amino-(4-phenoxyphenyl)-1H-pyrazolo[3,4-d]pyrimidin-1-yl)piperidin-1-yl)-4-piperidinmethanone] |  | > 10000 nM |  | 0.79 µM |  |
| Nc1ncc(C(=O)N2CCC[C@@H](n3nc(-c4ccc(Oc5ccccc5)cc4)c4c(N)ncnc43)C2)cn1 [Compound 21, (R)-(3-(4-amino-(4-phenoxyphenyl)-1H-pyrazolo[3,4-d]pyrimidin-1-yl)piperidin-1-yl)(2-aminopyrimidin-5-yl)methanone] |  | > 10000 nM |  | 0.33 µM |  |
| C[C@@H](N)C(=O)N1CCC[C@@H](n2nc(-c3ccc(Oc4ccccc4)cc3)c3c(N)ncnc32)C1 [Compound 24, (R)-2-amino-1-((R)-3-(4-amino-(4-phenoxyphenyl)-1H-pyrazolo[3,4-d]pyrimidin-1-yl)piperidin-1-yl)propan-1-one] |  | 7800 nM |  |  | IC50 ([2]; incubated for 72 hours, read-out: TEL-BaF3-FLT3/ITD IC50): 0.67 µM |
| CC(=O)N1CCC[C@@H](n2nc(-c3ccc(Oc4ccccc4)cc3)c3c(N)ncnc32)C1 [Compound 34] |  | > 10000 nM | 0.35 µM | 0.07 µM | IC50 [4]: 3560 nM |
| CN1CCN(Cc2ccc(C(=O)N3CCC[C@@H](n4nc(-c5ccc(Oc6ccccc6)cc5)c5c(N)ncnc54)C3)cc2)CC1 [Compound 35, (R)-(3-(4-amino-(4-phenoxyphenyl)-1H-pyrazolo[3,4-d]pyrimidin-1-yl)piperidin-1-yl)(4-((4-methylpiperazin-1-yl)methyl)phenyl)methanone] |  | 1060 nM | 0.28 µM | 0.07 µM | IC50 [4]: 620 nM |
